Reference: patent US20250136581A1, “SUBSTITUTED TRIAZOLE DERIVATIVE, PREPARATION METHOD THEREFOR, PHARMACEUTICAL COMPOSITION THEREOF, AND USE THEREOF” (SHANGHAI SIMR BIOTECHNOLOGY CO., LTD., priority 2021, published 2025)

Key:
[1] = target: human α5β3γ2 receptors (α5-GABAA receptor) (Homo sapiens (Human), UniProt P18507+P31644); experiment: 3H-flunitrazepam competition binding, human α5β3γ2 GABAA receptor; details: HEK293 cell membranes, 1 nM 3H-flunitrazepam; read-out: α5-GABAAR Ki
In short: (§1)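 HEK293 membranes stably expressing each human receptor subtype ([…]) competed against 1 nM 3H-flunitrazepam in Tris buffer, 1 h at room temperature; flumazenil defined the low-signal control. Eight-point 4-fold test-compound dilutions; GF/C filtration and scintillation counting gave IC50 by curve fitting, converted to Ki.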

human α2β3γ2 receptors = human α2β3γ2 receptors (Homo sapiens (Human), UniProt P18507+P47869); experiment: 3H-flunitrazepam competition binding, human α2β3γ2 GABAA receptor; details: HEK293 cell membranes, 1 nM 3H-flunitrazepam; read-out: Ki α2
In short: as §1

human α3β3γ2 receptors = human α3β3γ2 receptors (Homo sapiens (Human), UniProt P18507+P34903); experiment: 3H-flunitrazepam competition binding, human α3β3γ2 GABAA receptor; details: HEK293 cell membranes, 1 nM 3H-flunitrazepam; read-out: Ki α3
In short: as §1

Ki [1]: 0.00091 µM | Ki (human α2β3γ2 receptors): 0.0159 µM | Ki (human α3β3γ2 receptors): 0.0141 µM
Compound: Cc1nnn(-c2ccc(C(F)F)cc2)c1COc1ccc(N2CC(=O)NC(C)C2)nn1 (stereo not drawn) [Example 6, 4-(6-((1-(4-(Difluoromethyl)phenyl)-4-methyl-1H-1,2,3-triazol-5-yl)methoxy)pyridazin-3-yl)-6-methylpiperazin-2-one]
